Results: patent publication US11351134B2, “Small molecule agents, compositions, and formulations, for internal use, displaying inhibitory activity against gram-positive and/or gram-negative organisms” (NATUREZA, INC., priority 2017, dated 2022)
Like-named read-outs stand apart in the source and are kept apart here.

How the values were obtained:
E. coli = assay: Broth microdilution MIC of lecithin/chitosan particle compositions; format: cell-based; settings: maximum concentration tested 10 mg/ml; for MIC: Escherichia coli; for MIC (mg/ml) for E. coli (chitosan prep. mixture was at pH 5 or at pH 7): prep. mixture pH 5 or pH 7
Procedure: (§1) Initially, to determine basic characteristics, each active component was separately mixed, generally under agitated conditions, with water, and each was miscible with water. Each, after being mixed with water, was tested in a broth microdilution assay, against a variety of bacteria using amounts of the each of the lauric acid derivatives, ranging from about 0.0009 wt. % to about 8 wt. %. The bacteria included Escherichia coli, and Staphylococcus aureus (including MRSA strains). The minimum inhibitory concentration (MIC) needed to prevent growth of the target bacteria was evaluated based on a method published by Clinical Laboratory Standards Institute (CLSI), broth microdilution method M-07 (M07). […] Each of the samples containing one of the lauric acid derivatives was compared with a positive control, decanoic acid.
(§2) For TABLES 1 to 3, compositions were generally prepared as described above, and as further outlined in this paragraph. For these examples, the active component, as a lauric acid derivative or lauric acid, was suspended in an organic solvent, chloroform, and then mixed with water, under robust agitation. The amount of water to the amount of chloroform was at least about 2:1, and could be as high as 10:1. Chloroform was then evaporated (e.g., under vacuum using a freeze dryer). After removal of the chloroform, a 2.2% lecithin solution in an acetate buffer (e.g., 98 mM acetic acid and 2 mM sodium acetate) was prepared and added, so the final amount of the active component was about 1 part active component mixture and about 9 parts of the 2.2% lecithin solution. Of course, it is noted that other ranges to achieve final amount of the active component as described above (e.g., active component mixture and lecithin solution) may also be utilized. Cholesterol could also be optionally added. The mixture of lecithin and the active component was mixed and sonicated, and then a solution of about 1.5% chitosan was added. Thereafter, the entirety of the mixture containing the lecithin and the active component was further blended, in which a final ratio was about 1 part active component to about 9 parts of the 2.2% lecithin solution to about 10 parts of the 1.5% chitosan solution. The pH was then varied, to a pH of 5, or a pH of 7, or a pH of 9. In some mixtures having a pH of 7, a chemical agent imparting a positive charge to the chitosan was included in a form of glycol chitosan. In these tests, the chemical agent used was glycol. In these examples, the amount of chemical agent, glycol was about one molecule glycol moiety to one molecule chitosan sacharide unit; higher amounts of glycol moieties are also acceptable, while lower amounts of glycol moieties were often found to decrease overall inhibitory activity associated with a composition when formed and tested in vitro. It is noted that negatively charged chitosan containing particles were prepared. […] After mixing, the mixtures could each be filtered through a […] filter. In some tests, the mixtures were sonicated before filtering. Sonication produced small particles. In some studies, particles were freeze dried as a powder (generally, after mixing, sonicating and filtering).
(§3) The positive controls were prepared and evaluated in a similar manner. All prepared samples were tested using a broth microdilution test.

S. epidermidis = assay: as above; format: cell-based; settings: lecithin/chitosan particle composition, prep. mixture pH 5 or pH 7, maximum concentration tested 10 mg/ml; for MIC: Staphylococcus epidermidis
Procedure: as §1, §2, §3

Escherichia coli = assay: Broth microdilution (CLSI M07) of active component mixed with water only; format: cell-based; settings: active component mixed with water only (miscible state); about 0.0009 wt. % to about 8 wt. %
Procedure: as §1

[1] = system: Staphylococcus aureus (including MRSA strains); assay: as above; format: cell-based; settings: active component mixed with water only (miscible state); about 0.0009 wt. % to about 8 wt. %
Procedure: as §1

[2] = system: representative Gram-positive pathogens and yeast; assay: Broth microdilution of lecithin/chitosan compositions, sonicated and/or filtered; format: cell-based; settings: composition with lecithin and chitosan
Text: In a further preparation, lauric acid derivative, 12-aminododecanoic acid or 12-amino-1-dodecanoic acid methyl ester, was suspended individually (and independently) in an organic solvent, chloroform, and mixed with water, generally under agitated conditions. Here, for each sample, the amount of water to the amount of chloroform was at least 2:1, and was as high as 10:1. This was followed by chloroform evaporation, generally under vacuum using a freeze dryer. After removal of the chloroform, a lecithin solution was added to each sample. The lecithin was in a solution of acetic acid (e.g., 98 mM acetic acid and 2 mM sodium acetate), in which the amount of lecithin in solution was between about 1% to 5%. With addition of lecithin, each sample mixture contained up to about 4.8% lecithin (or generally about 5% or less), and up to about 7.8% of one of the lauric acid derivatives (or generally about 8% or less). pH of the solution was neutral. It is noted that the lecithin should be in a suitable form (e.g., solution or granules) acceptable for internal utilization (e.g., pharmaceutical grade). The lecithin may also include cholesterol, or other lecithin variants as described above, with similar results. Chitosan was then added to each of the samples, and each sample was then independently sonicated, followed by independent sterilization by high pressure filtration. […]

[3] = system: Gram-positive pathogens and Gram-negative pathogens; assay: In vitro inhibitory activity of chitosan- or carrier-containing particles; format: cell-based
Text: as §2, §3
This also occurs when the chitosan- or carrier-containing particle includes an active component that has a log P value that is less than 4 and includes a methyl and/or ethyl side chain (e.g., 12-amino-1-dodecanoic acid methyl ester). […]

Miscibility with water = format: physicochemical; settings: mixed with water under agitated conditions
Procedure: as §1

[4] = system: representative bacteria tested in vitro, whether Gram-positive or Gram-negative; assay: In vitro growth inhibition of active component suspended in chloroform, mixed with water, chloroform evaporated; format: cell-based; settings: pH neutral or acidic, no lecithin or chitosan
Procedure: In another preparation, each of the lauric acid derivatives of TABLE 4 was independently suspended in an organic solvent, chloroform, and then mixed with water, generally under agitated conditions. This was followed by chloroform evaporation, generally under vacuum, using a freeze dryer. The same preparations were evaluated against the positive control, decanoic acid. Here, for all samples, the amount of water to the amount of chloroform was at least 2:1, and was as high as 10:1. The pH was neutral or was acidic. For each of the lauric acid derivatives as so prepared independently, there was no evidence of any growth inhibitory activity (growth inhibition) against representative bacteria tested in vitro, whether Gram-positive or Gram-negative.

[5] = format: in vivo; settings: mice, oral capsules approximately 4 mg active component in chitosan-containing particles, three times per day for seven days
Text: Laboratory trials have shown that no resistance has developed in pathogens exposed to the compositions described herein, even with long term, repeated exposure (data not shown). In addition, no intrinsic resistance can or has been detected in target pathogens. […] A placebo group is also included, in which a group of 10 mice are given a placebo set of capsules, orally, three times per day and continued for seven days, each of the placebo set of capsules containing similarly prepared chitosan-containing particles without an active component, the preparation being generally as described herein. Initial mice have been infected with Salmonella typhimurium prior to oral delivery of one of the set of capsules. The capsules may be vegetable capsules. The capsules may have an enteric coating. For delivery, a formulation may be prepared in a manner understood in the relevant art. For delivery, a formulation may be in at least any one or more of the following forms: liquid, capsule, dried powder, mist, and the like. For delivery, the formulation will contain pharmaceutical grade materials, including one or more excipients and or fillers for internal and/or topical delivery in sufficient amounts known to those of skill in the relevant art. Flavors, colors, sugars, sugar-substitutes, and the like may also be included in any of the formulations, as is understood to those of skill in the relevant art.

[6] = lecithin/chitosan particle composition
[7] = read-out: MIC (mg/ml) for S. epidermidis (chitosan prep. mixture was at pH 5 or at pH 7)
[8] = synthesis (with chitosan) at pH 7 with positively charged chitosan

Compound | MIC (E. coli; lecithin/chitosan particle composition, prep. mixture pH 9, read-out: MIC (mg/ml) for E. coli (chitosan prep. mixture was at pH 9)) | MIC (E. coli; lecithin/glycol chitosan particle composition, prep. mixture pH 7, read-out: MIC (mg/ml) for E. coli (chitosan prep. mixture was at pH 7 with glycol chitosan)) | MIC (mg/ml) for E. coli (chitosan prep. mixture was at pH 5 or at pH 7) (E. coli; [6]) | MIC (S. epidermidis; [7]) | Inhibitory activity against Gram-negative bacteria (e.g., E. coli) (Escherichia coli) | Inhibitory activity against Gram-positive bacteria (e.g., S. aureus) [1] | Growth inhibitory activity against representative Gram-positive pathogens and yeast [2] | Inhibitory activity against both Gram-positive pathogens and Gram-negative pathogens [3, 8] | MIC (S. epidermidis; Table 3, read-out: MIC (mg/ml) S. epidermidis (chitosan prep. mixture at pH 5 or at pH 7)) | Miscibility with water (Miscibility with water) | Growth inhibitory activity against representative bacteria [4] | MIC (mg/ml) for E. coli (chitosan prep. mixture was at pH 9) (E. coli; lecithin/chitosan particle composition, prep. mixture pH 9) | MIC (mg/ml) for E. coli (chitosan prep. mixture was at pH 7 with glycol chitosan) (E. coli; lecithin/glycol chitosan particle composition, prep. mixture pH 7) | MIC (mg/ml) for S. epidermidis (chitosan prep. mixture was at pH 5 or at pH 7) (S. epidermidis) | Inhibitory activity against both Gram-positive pathogens and Gram-negative pathogens ([3]; synthesis (with chitosan) at pH 9) | Safety in animal trials [5]
NCCCCCCCCCCCC(=O)O [12-aminododecanoic acid] | 10 mg/mL | 10 mg/mL | — (no inhibitory activity) | 10 mg/mL | does not, in the miscible state, demonstrate inhibitory activity | does not, in the miscible state, demonstrate inhibitory activity | exhibited growth inhibitory activity | stronger inhibitory activity as well as broad spectrum activity |  |  |  |  |  |  |  | 
CCCCCCCCCC(=O)O [decanoic acid, reference compound] |  |  | — (no inhibitory activity) | 10 mg/mL |  |  |  |  | 10 mg/mL | not miscible in water | did not demonstrate growth inhibitory activity |  |  |  |  | 
sucrose monolaurate |  |  | — (no inhibitory activity) |  |  |  |  | stronger inhibitory activity as well as broad spectrum activity |  |  |  | 10 mg/ml | 10 mg/ml | 10 mg/ml | stronger inhibitory activity as well as broad spectrum activity | no safety concerns
